We go through 26 compounds from patent US8063065B2, “Azaindazole compounds as CCR1 receptor antagonists” (Boehringer Ingelheim International GmbH, priority 2008, dated 2011).

Assay [1] addresses T1, CCR1 (Homo sapiens, UniProt P32246).
T1 sequence (P32246 1-355): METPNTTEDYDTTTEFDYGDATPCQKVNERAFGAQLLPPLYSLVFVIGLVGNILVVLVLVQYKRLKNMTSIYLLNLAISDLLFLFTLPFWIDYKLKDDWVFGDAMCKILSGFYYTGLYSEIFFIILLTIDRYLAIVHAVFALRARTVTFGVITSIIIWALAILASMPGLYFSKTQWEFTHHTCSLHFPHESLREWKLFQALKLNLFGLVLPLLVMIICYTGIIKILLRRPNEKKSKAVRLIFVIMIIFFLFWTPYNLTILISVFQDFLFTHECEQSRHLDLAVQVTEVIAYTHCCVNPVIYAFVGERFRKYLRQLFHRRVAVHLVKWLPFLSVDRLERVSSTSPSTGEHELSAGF
Kind of assay: Method A: calcium flux in CCR1 transfected cells (Fluo-4 NW, FLIPR TETRA), block of the CCR1/MIP-1α interaction. Format: cell-based. The following applies: Method A: Fluo-4 NW, MIP-1 alpha at EC80. As to the method: Compounds are assessed for the ability to block the interaction of CCR1 and MIP-1α in a functional cellular assay measuring calcium flux in CCR1 transfected cells.
Method A: Non-adherent cells purchased from Chemicon Corporation (HTS005C), stably expressing recombinant CCR1 and G-alpha-16 are grown in RPMI 1640 medium (Mediatech 10-080-CM) supplemented with 10% heat-inactivated FBS, 0.4 mg/mL Geneticin and penicillin/streptomycin. On the day of the assay, the cells are transferred to a beaker and dye-loaded in bulk using a Fluo-4 NW Calcium Assay Kit with probenecid (Invitrogen F36205) at 0.8E6 cells/mL for 1 hour at room temperature. After 1 hour, they are seeded in a 384-well tissue culture-treated plate at a density of 20,000 cells/well. Appropriately diluted test compound is added to the well to achieve a top concentration of 3,000 nM (diluted 4-fold with 10 doses total). The final concentration of DMSO is 1%. The buffer is HBSS (Invitrogen 14025) with 20 mM HEPES at pH 7.4. The cells are allowed to incubate 1 hour in the dark at room temperature. The plates are transferred to the FLIPR TETRA where MIP-1 alpha in 1% BSA is added at the EC80 final concentration. Wells+/−MIP-1 alpha containing diluted DMSO instead of compound serve as the controls. Intracellular calcium flux is recorded on the FLIPR TETRA, using excitation at 470/495 nm and emission at 515/575 nm. Data are analyzed using Activity Base software.
A general note: Calcium flux is commonly read through the fluorescence of an indicator in the cells.

Assay [2] deals with T1, CCR1. Kind of assay: Method B: calcium flux in CCR1 transfected cells (Calcium 4 dye, […] FDSS6000), block of the CCR1/MIP-1α interaction. Format: cell-based. The following applies: Method B: Calcium 4 dye, MIP-1alpha at EC80. The essentials:
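Calcium flux on an FDSS6000 was triggered by MIP-1α at its EC80 in stably CCR1/G-alpha-16-expressing non-adherent cells. Before this, Calcium 4-loaded cells were preincubated with compound in HBSS, 20 mM HEPES pH 7.4, 1% DMSO: 30 min at 37 C plus 30 min at room temperature. Ten 4-fold doses began at 3,000 nM, with ±MIP-1α DMSO wells as controls.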

Usually IC50 stands for the concentration at which inhibition is half-maximal. On to `CCC[C@H](NC(=O)c1cncc2c1cnn2-c1ccc(F)cc1)c1cncc(Br)c1` [1-(4-Fluorophenyl)-1H-pyrazolo[3,4-c]pyridine-4-carboxylic acid [(S)-1-(5-bromopyridin-3-yl)-butyl]-amide], for which the IC50 in assay [1] was 0.2 nM.

In the case of `CN1CCN(S(=O)(=O)c2ccc(CNC(=O)c3cncc4c3cnn4-c3ccc(F)cc3)cc2)CC1` [1-(4-Fluorophenyl)-1H-pyrazolo[3,4-c]pyridine-4-carboxylic acid 4-(4-methyl-piperazine-1-sulfonyl)-benzylamide], in assay [1], the IC50 was found to be 1 nM.

Take `CC(=O)OCCN(C)S(=O)(=O)c1ccc(CNC(=O)c2cncc3c2cnn3-c2ccc(F)cc2)cc1` [Acetic acid 2-{[4-({[1-(4-fluorophenyl)-1H-pyrazolo[3,4-c]pyridine-4-carbonyl]-amino}-methyl)-benzenesulfonyl]-methyl-amino}-ethyl ester]: the IC50 in assay [1] was 2 nM.

In the case of `CN(c1ccc(CNC(=O)c2cncc3c2cnn3-c2ccc(F)cc2)cn1)S(C)(=O)=O` [1-(4-Fluorophenyl)-1H-pyrazolo[3,4-c]pyridine-4-carboxylic acid [6-(methanesulfonyl-methyl-amino)-pyridin-3-ylmethyl]-amide], the IC50 in assay [1] came to 5 nM.

Regarding `CCCC(NC(=O)c1cncc2c1cnn2-c1ccc(Cl)cc1)c1ccc(S(C)(=O)=O)nc1` (centres unmarked) [1-(4-Chlorophenyl)-1H-pyrazolo[3,4-c]pyridine-4-carboxylic acid [1-(6-methanesulfonyl-pyridin-3-yl)-butyl]-amide], the IC50 in assay [1] came to 1 nM.

As to `COCCN(c1ccc(CNC(=O)c2cncc3c2cnn3-c2ccc(F)cc2)cn1)S(C)(=O)=O` [1-(4-Fluorophenyl)-1H-pyrazolo[3,4-c]pyridine-4-carboxylic acid {6-[methanesulfonyl-(2-methoxy-ethyl)-amino]-pyridin-3-ylmethyl}-amide], the IC50 in assay [1] was determined as 1 nM.

Consider `C=CC[C@H](NC(=O)c1cncc2c1cnn2-c1ccc(F)cc1)c1ccnc(S(C)(=O)=O)c1` [1-(4-Fluorophenyl)-1H-pyrazolo[3,4-c]pyridine-4-carboxylic acid [(S)-1-(2-methanesulfonyl-pyridin-4-yl)-but-3-enyl]-amide], for which the IC50 in assay [2] is 0.3 nM.

Turning to `CC(C)(O)CNS(=O)(=O)c1ccc(CNC(=O)c2cncc3c2cnn3-c2ccc(F)cc2)cc1` [1-(4-Fluorophenyl)-1H-pyrazolo[3,4-c]pyridine-4-carboxylic acid 4-(2-hydroxy-2-methyl-propylsulfamoyl)-benzylamide], in assay [2], the 50% inhibitory concentration (IC50) amounted to 1 nM.

For `CC[C@H](NC(=O)c1cncc2c1cnn2-c1ccc(F)cc1)c1c[nH]c(S(C)(=O)=O)c1` [1-(4-Fluorophenyl)-1H-pyrazolo[3,4-c]pyridine-4-carboxylic acid [(S)-1-(5-methanesulfonyl-1H-pyrrol-3-yl)-propyl]-amide], the IC50 in assay [2] is 0.9 nM.

As to `CC[C@H](NC(=O)c1cncc2c1cnn2-c1ccc(F)cc1)c1nc(C(=O)OC)co1` [2-((S)-1-{[1-(4-Fluorophenyl)-1H-pyrazolo[3,4-c]pyridine-4-carbonyl]-amino}-propyl)-oxazole-4-carboxylic acid methyl ester], in assay [2], the IC50 turned out to be 38 nM.

For the compound `CC(=O)N(C)c1ncc(CNC(=O)c2cncc3c2cnn3-c2ccc(F)cc2)cn1` [1-(4-Fluorophenyl)-1H-pyrazolo[3,4-c]pyridine-4-carboxylic acid [2-(acetyl-methyl-amino)-pyrimidin-5-ylmethyl]-amide], in assay [2], the IC50 is 24 nM.

Take `CC[C@H](NC(=O)c1cncc2c1cnn2-c1ccc(F)cc1)c1cccc(S(=O)(=O)CCC(=O)OC)n1` [3-[6-((S)-1-{[1-(4-Fluorophenyl)-1H-pyrazolo[3,4-c]pyridine-4-carbonyl]-amino}-propyl)-pyridine-2-sulfonyl]-propionic acid methyl ester]: in assay [2], the half-inhibitory concentration (IC50) was found to be 3 nM.

For `CC[C@H](NC(=O)c1cncc2c1cnn2-c1ccc(F)cc1)c1ccnc(CO)c1` [1-(4-Fluorophenyl)-1H-pyrazolo[3,4-c]pyridine-4-carboxylic acid [(S)-1-(2-hydroxymethyl-pyridin-4-yl)-propyl]-amide], the IC50 in assay [2] is 3 nM.

For the compound `CC[C@H](NC(=O)c1cncc2c1cnn2-c1ccc(F)cc1)c1cc(Br)no1` [1-(4-Fluorophenyl)-1H-pyrazolo[3,4-c]pyridine-4-carboxylic acid [(S)-1-(3-bromo-isoxazol-5-yl)-propyl]-amide], the IC50 in assay [2] is 28 nM.

`C[C@H](NC(=O)c1cncc2c1cnn2-c1ccc(F)cc1)c1cc(N(C)C)nc(S(C)(=O)=O)c1` [1-(4-Fluorophenyl)-1H-pyrazolo[3,4-c]pyridine-4-carboxylic acid [(S)-1-(2-dimethylamino-6-methanesulfonyl-pyridin-4-yl)-ethyl]-amide]: in assay [2], the IC50 was 0.2 nM.

For the compound `CC[C@H](NC(=O)c1cncc2c1cnn2-c1ccc(F)cc1)c1ccn(S(C)(=O)=O)n1` [1-(4-Fluorophenyl)-1H-pyrazolo[3,4-c]pyridine-4-carboxylic acid [(S)-1-(1-methanesulfonyl-1H-pyrazol-3-yl)-propyl]-amide], the IC50 in assay [2] was 3 nM.

Regarding `CC[C@H](NC(=O)c1cncc2c1cnn2-c1ccc(F)cc1)c1cccc(S(N)(=O)=O)n1` [1-(4-Fluorophenyl)-1H-pyrazolo[3,4-c]pyridine-4-carboxylic acid [(S)-1-(6-sulfamoyl-pyridin-2-yl)-propyl]-amide], in assay [2], the IC50 worked out at 0.3 nM.

For the compound `CC[C@H](NC(=O)c1cncc2c1cnn2-c1ccc(F)cc1)c1nc(C(=O)OC)cs1` [2-((S)-1-{[1-(4-Fluorophenyl)-1H-pyrazolo[3,4-c]pyridine-4-carbonyl]-amino}-propyl)-thiazole-4-carboxylic acid methyl ester], the IC50 in assay [2] is 5 nM.

In the case of `CCC[C@@H](NC(=O)c1cncc2c1cnn2-c1ccc(F)cc1)c1ccc(O)c(S(C)(=O)=O)c1` [1-(4-Fluorophenyl)-1H-pyrazolo[3,4-c]pyridine-4-carboxylic acid [(R)-1-(4-hydroxy-3-methanesulfonyl-phenyl)-butyl]-amide], the IC50 in assay [2] was 0.2 nM.

Consider `C[C@H](NC(=O)c1cncc2c1cnn2-c1ccc(F)cc1)c1csc(S(C)(=O)=O)n1` [1-(4-Fluorophenyl)-1H-pyrazolo[3,4-c]pyridine-4-carboxylic acid [(S)-1-(2-methanesulfonyl-thiazol-4-yl)-ethyl]-amide], for which the IC50 in assay [2] is 4 nM.

As for `CC[C@H](NC(=O)c1cncc2c1cnn2-c1ccc(F)cc1)c1ccnc([S+](C)[O-])c1` (stereo partly drawn) [1-(4-Fluorophenyl)-1H-pyrazolo[3,4-c]pyridine-4-carboxylic acid [(S)-1-(2-methanesulfinyl-pyridin-4-yl)-propyl]-amide], the IC50 in assay [2] came out at 0.5 nM.

On to `CC[C@H](NC(=O)c1cncc2c1cnn2-c1ccc(F)cc1)c1nc(S(C)(=O)=O)cs1` [1-(4-Fluorophenyl)-1H-pyrazolo[3,4-c]pyridine-4-carboxylic acid [(S)-1-(4-methanesulfonyl-thiazol-2-yl)-propyl]-amide], for which the half-inhibitory concentration (IC50) in assay [2] amounted to 0.3 nM.

With `C[C@H](NC(=O)c1cncc2c1cnn2-c1ccc(F)cc1)c1ccnc(S(=O)(=O)CCCO)c1` [1-(4-Fluorophenyl)-1H-pyrazolo[3,4-c]pyridine-4-carboxylic acid {(S)-1-[2-(3-hydroxy-propane-1-sulfonyl)-pyridin-4-yl]-ethyl}-amide], in assay [2], the IC50 is 38 nM.

For the compound `CC[C@H](NC(=O)c1cncc2c1cnn2-c1ccc(F)cc1)c1cccc(S(=O)(=O)CC)n1` [1-(4-Fluorophenyl)-1H-pyrazolo[3,4-c]pyridine-4-carboxylic acid [(S)-1-(6-ethanesulfonyl-pyridin-2-yl)-propyl]-amide], the IC50 in assay [2] is 0.5 nM.

Take `CC[C@H](NC(=O)c1cncc2c1cnn2-c1ccc(F)cc1)c1cc(OC)nc(S(C)(=O)=O)c1` [1-(4-Fluorophenyl)-1H-pyrazolo[3,4-c]pyridine-4-carboxylic acid [(S)-1-(2-methanesulfonyl-6-methoxy-pyridin-4-yl)-propyl]-amide]: the IC50 in assay [2] was 0.1 nM.

Turning to `COc1cc(CNC(=O)c2cncc3c2cnn3-c2ccc(F)cc2)cc(S(C)(=O)=O)n1` [1-(4-Fluorophenyl)-1H-pyrazolo[3,4-c]pyridine-4-carboxylic acid (2-methanesulfonyl-6-methoxy-pyridin-4-ylmethyl)-amide], in assay [2], the concentration for half-maximal inhibition (IC50) amounted to 1 nM.
